Patent US9119856B1, “Method for treating cancer using a dihydropyrimidine derivative” (KING SAUD UNIVERSITY, priority 2015, dated 2015)
Entries after “also recorded” stand apart in the source; their conditions may differ.

Columns and labels:
[1] = tested on: lovo colon cancer cells; assay: Side population inhibition on lovo colon cancer cells; assay type: cell-based
Protocol: The relationship of compound structure and compound activity of various Formula I compounds, i.e., 5-benzoyl-3,4-dihydropyrimidin-2(1H)-one/thione compounds, on inhibition of side population cancer stem cells was studied. The various 5-benzoyl-3,4-dihydropyrimidin-2(1H)-one/thione compounds and the corresponding inhibition activity are provided below in Table 1.
The newly synthesized compounds DHP (1-9) were evaluated for side population inhibition on lovo colon cancer cells (%) at 10 μM concentration. […] It was noted that most of the compounds which include a methoxy group at R1 were active. The methoxy group seems to help the molecule to align in protein pocket. Compounds with an oxygen atom at R2 were also active. It seems that the oxygen atom at position R2 also plays some important role in binding with protein pocket.
For DCV staining, cells were pelleted and suspended in DMEM cell culture medium at a concentration of 1*10^6 cells/ml. DCV (Invitrogen Molecular Probes®, Eugene, Oreg.) was added at a final staining concentration of 10 μM, as this concentration gave optimal separation between SP and non SP cells. PI stained was used to exclude dead cells. Functionally, to gate only side population cells, Verapamil 200 μM or FTC 10 μg/ml was used. All analyses were performed on a FACS LSRII (BD Biosciences). […]

[2] = tested on: MCF-7 breast cancer cells; assay: Side population analysis of MCF-7 breast cancer cells (DyeCycle Violet staining); assay type: cell-based, human; conditions: DHP-5 50, 75 and 100 μM, Verapamil 200 μM
Protocol: (§1) For DCV staining, cells were pelleted and suspended in DMEM cell culture medium at a concentration of 1*10^6 cells/ml. DCV (Invitrogen Molecular Probes®, Eugene, Oreg.) was added at a final staining concentration of 10 μM, as this concentration gave optimal separation between SP and non SP cells. PI stained was used to exclude dead cells. Functionally, to gate only side population cells, Verapamil 200 μM or FTC 10 μg/ml was used. All analyses were performed on a FACS LSRII (BD Biosciences). Debris and cell clusters were excluded during side-scatter and forward-scatter analyses.

[3] = tested on: tumor derived cells of LOVO xenograft; assay: Side population analysis of tumor derived cells of LOVO xenograft; assay type: in vivo, Nude mice; conditions: DHP-5 50 mg/kg for 14 days, Verapamil 200 μM
Protocol: as §1
A side population analysis of tumor derived cells of LOVO xenograft that were untreated (FIG. 4A), treated with side population inhibitor reference drug Verapamil 200 μM (FIG. 4B), and side population analysis of tumor cells derived from animals treated by DHP-5 50 mg/kg for 14 days.
Nude mice (Jackson Laboratories, Bar Harbor, Me., USA) were injected with 4*106 cells of MDA-MB-468 and LOVO subcutaneously in the right flank, and tumor size was measured weekly using a caliper. When the tumor reached approximately 400 mm^3 […], the mice were divided into control treated groups, the treatment including administration of DHP-5 (50 mg/Kg) via intraperitoneal injection daily for 14 days. The general toxicity of the treatment was determined by measuring the total body weight of the treated and control mice. […]

[4] = tested on: MCF-7 cells; assay: Flow cytometric DNA cell cycle analysis; assay type: cell-based, human; conditions: DHP-5 treated vs untreated
Protocol: 2×10^6 cells were fixed in 1 ml ethanol (70%) for 60 min. at room temperature. Harvested cells were resuspended in 1 ml Na citrate (50 mM) containing 250 μg RNase A and incubated at 50° C. for 60 min. Next, cells were resuspended in the same buffer containing 4 μg propidium iodine (PI) and incubated for 30 min. before being analyzed by flow cytometry (Becton Dickinson, San Jose, Calif., USA). The percentage of cells in various cell cycle phases was determined by using Cell Quest Pro software (Becton Dickinson).

[5] = molecular target: T1, ABCG2 (Homo sapiens, UniProt Q9UNQ0); assay: Mitoxantrone accumulation in MCF-7 cells; assay type: cell-based
T1 construct: endogenous in cells; host or cells: MCF-7 cells
T1 sequence (Q9UNQ0 1-655): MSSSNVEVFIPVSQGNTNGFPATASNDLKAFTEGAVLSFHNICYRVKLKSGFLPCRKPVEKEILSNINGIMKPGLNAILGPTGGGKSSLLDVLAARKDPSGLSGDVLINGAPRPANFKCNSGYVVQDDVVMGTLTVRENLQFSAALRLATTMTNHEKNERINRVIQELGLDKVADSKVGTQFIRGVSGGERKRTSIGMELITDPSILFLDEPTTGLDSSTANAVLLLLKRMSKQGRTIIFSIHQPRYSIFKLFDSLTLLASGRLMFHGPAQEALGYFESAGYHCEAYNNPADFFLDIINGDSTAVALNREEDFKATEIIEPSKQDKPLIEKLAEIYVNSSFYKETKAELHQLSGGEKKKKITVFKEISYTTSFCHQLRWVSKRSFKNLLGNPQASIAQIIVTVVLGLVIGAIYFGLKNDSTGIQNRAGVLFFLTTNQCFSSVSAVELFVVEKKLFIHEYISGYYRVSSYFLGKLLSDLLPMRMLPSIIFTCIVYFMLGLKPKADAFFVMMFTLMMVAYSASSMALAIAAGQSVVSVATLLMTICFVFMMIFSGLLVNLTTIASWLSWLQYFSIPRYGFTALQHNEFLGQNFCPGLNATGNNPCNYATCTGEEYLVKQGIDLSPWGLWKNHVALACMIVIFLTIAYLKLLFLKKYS

[6] = tested on: ABCG2; assay: Immunofluorescence staining of ABCG2 in MCF-7 cells; assay type: cell-based, human
[7] = tested on: MDA-MB-468 (breast cancer xenograft); assay: Antitumor activity in mice, MDA-MB-468 breast cancer xenograft; assay type: in vivo, Nude mice; conditions: 50 mg/Kg intraperitoneal daily for 14 days
Protocol: (§2) Nude mice (Jackson Laboratories, Bar Harbor, Me., USA) were injected with 4*106 cells of MDA-MB-468 and LOVO subcutaneously in the right flank, and tumor size was measured weekly using a caliper. When the tumor reached approximately 400 mm^3 […], the mice were divided into control treated groups, the treatment including administration of DHP-5 (50 mg/Kg) via intraperitoneal injection daily for 14 days. The general toxicity of the treatment was determined by measuring the total body weight of the treated and control mice. The breeding, care and sacrifice of the animals were in accordance with the protocols approved by the Animal Care and Use Committee of the King Faisal Specialist Hospital and Research Centre.
(§3) Tumor growth of MDA-MB-468 (breast cancer xenograft) and LOVO (colon cancer xenograft) was recorded in untreated mice groups and DHP-5 (50 mg/kg) treated mice groups.

[8] = tested on: LOVO (colon cancer xenograft); assay: Antitumor activity in mice, LOVO colon cancer xenograft; assay type: in vivo, Nude mice; conditions: 50 mg/Kg intraperitoneal daily for 14 days
Protocol: as §2, §3

[9] = General toxicity by total body weight of treated mice; assay type: in vivo; conditions: animal models of breast and colon cancer
Protocol: as §2

[10] = tested on: breast cancer cells; assay: Self-renewal ability of breast cancer cells; assay type: cell-based
[11] = Apoptosis induction in vitro; assay type: cell-based
[12] = Cell proliferation in vitro; assay type: cell-based

For `CCOc1ccc(C2NC(=O)NC=C2C(=O)c2cc(OC)c(OC)c(OC)c2)cc1` (stereo not shown) [DHP-5, 4-(4-ethoxyphenyl)-5-(3,4,5-trimethoxybenzoyl)-3,4-dihydropyrimidin-2(1H)-one], the “side population inhibition, activity in words” value ([1]; 10 μM) was “moderately active”, the inhibition at 10 µM ([1]; Homo sapiens) was 58.8% and the “inhibitory effect on side population cancer stem cells versus Verapamil” value [2] was “more potent inhibitor of side population cells than reference drug Verapamil; also recorded: more potent inhibitory effect of DHP-5 on side population cancer stem cells than reference drug Verapamil”. The “inhibitory effect on side population cancer stem cells of xenograft tumor cells versus Verapamil” value [3] was “more potent inhibitory effect of DHP-5 on side population cancer stem cells than reference drug Verapamil”, the “cell cycle phase distribution” value [4] was “increased accumulation of treated cells in G2+M mitosis phase” and the “Mitoxantrone accumulation (selective ABCG2 substrate)” value [5] was “increase in Mitoxantrone accumulation”. For the same compound, the “expression of ABCG2” value [6] was “decreased the expression of ABCG2”, the “tumor growth, MDA-MB-468 breast cancer xenograft” value [7] was “superior efficacy compared to reference drug Doxorubicin; also recorded: shrinking of tumor” and the “tumor growth, LOVO colon cancer xenograft” value [8] was “superior efficacy compared to reference drug Doxorubicin; also recorded: shrinking of tumor”. For the same compound, the general toxicity [9] was “without any sign of general toxicity”, the “self-renewal ability of breast cancer cells” value [10] was “blocking self-renewal ability of breast cancer cells in a dose dependent manner” and the apoptosis [11] was “induced apoptosis”. The cell proliferation [12] was “blocked cell proliferation”.
